Results published in ChEMBL document CHEMBL5260837, “Recent advances in small molecule based cancer immunotherapy” (Eur J Med Chem, 2018).

Key:
[1] = molecular target: Programmed cell death protein 1/Programmed cell death 1 ligand 1 (Homo sapiens, UniProt Q15116+Q9NZQ7); experiment: Inhibition of PD-1/PD-L1 interaction (unknown origin) incubated for 24 hrs by HTRF assay; assay type: protein-complex assay
Splenocyte = experiment: Antiproliferative activity in mouse splenocyte assessed as inhibition of cell proliferation incubated for 72 hrs by MTT assay; assay type: functional; design: scale not given: the % may be the effect or the level left
[2] = molecular target: C-X-C chemokine receptor type 4 (Homo sapiens, UniProt P61073); experiment: Antagonist activity at CXCR4 receptor in human MIA PaCa-2 cells assessed as reduction in forskolin-stimulated inhibition of cAMP production; assay type: cell-based
Chain of C-X-C chemokine receptor type 4 (P61073 whole entry): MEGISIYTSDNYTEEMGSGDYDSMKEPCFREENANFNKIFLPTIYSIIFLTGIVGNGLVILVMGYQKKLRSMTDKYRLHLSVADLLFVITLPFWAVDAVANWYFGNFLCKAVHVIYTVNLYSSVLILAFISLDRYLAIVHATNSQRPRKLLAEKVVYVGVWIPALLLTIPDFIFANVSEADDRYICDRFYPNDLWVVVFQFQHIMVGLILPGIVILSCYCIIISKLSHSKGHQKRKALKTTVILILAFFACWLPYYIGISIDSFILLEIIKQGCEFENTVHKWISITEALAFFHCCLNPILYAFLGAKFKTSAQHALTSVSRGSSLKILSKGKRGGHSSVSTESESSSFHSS

MIA PaCa-2 = experiment: Antiproliferative activity against human MIA PaCa-2 cells
[3] = Half life in mouse at 2000 mg/kg; assay type: ADME, organism-based; settings: in vivo
[4] = molecular target: T1, Ectonucleoside triphosphate diphosphohydrolase 1 (Homo sapiens, UniProt P49961); experiment: Inhibition of human NTPDase1
T1 sequence (P49961 whole entry): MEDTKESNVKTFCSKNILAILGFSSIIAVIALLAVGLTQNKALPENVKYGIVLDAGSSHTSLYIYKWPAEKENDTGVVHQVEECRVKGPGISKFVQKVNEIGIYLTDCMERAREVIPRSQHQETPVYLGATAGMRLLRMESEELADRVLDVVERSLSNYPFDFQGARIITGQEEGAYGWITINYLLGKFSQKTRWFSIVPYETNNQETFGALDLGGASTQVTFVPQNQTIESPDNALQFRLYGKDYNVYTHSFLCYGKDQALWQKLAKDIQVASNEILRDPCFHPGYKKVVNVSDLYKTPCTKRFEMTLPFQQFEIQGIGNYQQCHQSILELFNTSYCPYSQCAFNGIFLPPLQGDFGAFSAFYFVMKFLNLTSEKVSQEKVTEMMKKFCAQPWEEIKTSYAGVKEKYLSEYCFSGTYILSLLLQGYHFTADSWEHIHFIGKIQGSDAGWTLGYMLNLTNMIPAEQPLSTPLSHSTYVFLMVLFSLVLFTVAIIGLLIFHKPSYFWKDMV

Toll-like receptor 8 = molecular target: T2, Toll-like receptor 8 (Homo sapiens, UniProt Q9NR97); experiment: Agonist activity at human TLR8 expressed in HEK293 cells by reporter gene assay
T2 sequence (Q9NR97 whole entry): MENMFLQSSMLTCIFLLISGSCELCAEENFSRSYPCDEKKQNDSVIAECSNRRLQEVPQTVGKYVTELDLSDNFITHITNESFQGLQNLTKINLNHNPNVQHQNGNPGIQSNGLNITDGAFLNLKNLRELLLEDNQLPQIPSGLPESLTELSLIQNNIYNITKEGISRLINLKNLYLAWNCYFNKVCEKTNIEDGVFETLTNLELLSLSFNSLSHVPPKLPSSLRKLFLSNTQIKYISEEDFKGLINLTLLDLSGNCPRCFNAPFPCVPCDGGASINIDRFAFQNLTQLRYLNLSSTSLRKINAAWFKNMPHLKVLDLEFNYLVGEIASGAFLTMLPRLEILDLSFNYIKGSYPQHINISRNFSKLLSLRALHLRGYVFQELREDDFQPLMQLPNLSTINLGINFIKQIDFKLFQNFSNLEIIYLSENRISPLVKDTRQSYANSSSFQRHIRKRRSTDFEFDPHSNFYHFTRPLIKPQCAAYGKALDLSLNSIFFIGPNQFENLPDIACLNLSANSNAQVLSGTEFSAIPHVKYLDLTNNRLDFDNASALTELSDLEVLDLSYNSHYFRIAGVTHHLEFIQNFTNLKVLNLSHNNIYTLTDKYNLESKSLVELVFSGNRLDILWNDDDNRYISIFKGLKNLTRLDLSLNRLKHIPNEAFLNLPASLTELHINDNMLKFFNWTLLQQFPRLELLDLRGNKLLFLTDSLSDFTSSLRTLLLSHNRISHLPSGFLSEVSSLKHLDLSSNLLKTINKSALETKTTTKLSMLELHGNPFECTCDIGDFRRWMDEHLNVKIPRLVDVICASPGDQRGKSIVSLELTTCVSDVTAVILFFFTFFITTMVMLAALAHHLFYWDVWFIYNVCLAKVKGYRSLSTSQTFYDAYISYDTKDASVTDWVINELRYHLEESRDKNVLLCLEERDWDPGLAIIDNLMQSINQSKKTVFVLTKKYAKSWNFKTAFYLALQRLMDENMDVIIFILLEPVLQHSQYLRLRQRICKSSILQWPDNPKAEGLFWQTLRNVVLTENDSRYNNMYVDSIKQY

[5] = Half life in rat; assay type: ADME; settings: in vivo
[6] = Oral bioavailability in rat; assay type: ADME, organism-based; settings: in vivo
[7] = molecular target: Indoleamine 2,3-dioxygenase 1 (Homo sapiens, UniProt P14902); experiment: Inhibition of human IDO1
Chain of Indoleamine 2,3-dioxygenase 1 (P14902 whole entry): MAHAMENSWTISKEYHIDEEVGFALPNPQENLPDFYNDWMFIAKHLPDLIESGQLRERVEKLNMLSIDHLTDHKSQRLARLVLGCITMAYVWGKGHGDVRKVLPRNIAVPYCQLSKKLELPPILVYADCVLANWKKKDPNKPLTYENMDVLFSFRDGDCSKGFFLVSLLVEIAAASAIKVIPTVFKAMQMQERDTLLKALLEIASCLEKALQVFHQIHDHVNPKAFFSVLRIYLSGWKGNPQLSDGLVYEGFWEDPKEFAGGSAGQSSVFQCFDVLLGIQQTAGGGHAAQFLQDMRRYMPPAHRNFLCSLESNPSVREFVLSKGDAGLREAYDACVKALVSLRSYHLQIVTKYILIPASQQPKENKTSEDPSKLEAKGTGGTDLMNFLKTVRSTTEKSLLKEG

Arginase-1 = molecular target: T3, Arginase-1 (Homo sapiens, UniProt P05089); experiment: Inhibition of human ARG1
T3 sequence (P05089 whole entry): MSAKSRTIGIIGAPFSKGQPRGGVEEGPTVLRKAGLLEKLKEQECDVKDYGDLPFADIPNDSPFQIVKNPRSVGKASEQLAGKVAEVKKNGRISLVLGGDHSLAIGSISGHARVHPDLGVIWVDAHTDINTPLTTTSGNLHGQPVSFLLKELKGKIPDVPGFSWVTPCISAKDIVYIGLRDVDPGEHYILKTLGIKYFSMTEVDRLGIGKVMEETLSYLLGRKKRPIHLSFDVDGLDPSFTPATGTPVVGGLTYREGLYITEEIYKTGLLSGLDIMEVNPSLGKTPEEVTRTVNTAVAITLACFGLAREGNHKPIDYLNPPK

[8] = molecular target: T4, Arginase-2, mitochondrial (Homo sapiens, UniProt P78540); experiment: Competitive inhibition of human ARG2
T4 sequence (P78540 whole entry): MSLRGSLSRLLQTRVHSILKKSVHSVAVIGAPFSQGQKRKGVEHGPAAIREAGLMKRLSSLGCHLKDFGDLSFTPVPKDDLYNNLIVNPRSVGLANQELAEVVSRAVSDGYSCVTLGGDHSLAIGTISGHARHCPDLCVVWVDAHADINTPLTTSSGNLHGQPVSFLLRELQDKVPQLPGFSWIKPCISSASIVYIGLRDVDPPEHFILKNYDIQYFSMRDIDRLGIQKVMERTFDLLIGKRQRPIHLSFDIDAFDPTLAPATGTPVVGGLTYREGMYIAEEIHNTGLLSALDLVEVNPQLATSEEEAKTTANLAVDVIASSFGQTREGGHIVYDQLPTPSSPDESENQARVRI

Chain of Programmed cell death protein 1/Programmed cell death 1 ligand 1 (Q15116 whole entry): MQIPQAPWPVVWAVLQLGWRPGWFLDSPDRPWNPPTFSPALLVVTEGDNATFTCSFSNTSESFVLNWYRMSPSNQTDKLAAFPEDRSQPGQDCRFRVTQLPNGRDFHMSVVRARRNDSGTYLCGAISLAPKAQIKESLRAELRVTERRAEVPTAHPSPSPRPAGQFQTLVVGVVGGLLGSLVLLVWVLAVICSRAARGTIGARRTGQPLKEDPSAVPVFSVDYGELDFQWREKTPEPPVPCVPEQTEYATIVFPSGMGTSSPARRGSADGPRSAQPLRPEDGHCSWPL
Chain of Programmed cell death protein 1/Programmed cell death 1 ligand 1 (Q9NZQ7 whole entry): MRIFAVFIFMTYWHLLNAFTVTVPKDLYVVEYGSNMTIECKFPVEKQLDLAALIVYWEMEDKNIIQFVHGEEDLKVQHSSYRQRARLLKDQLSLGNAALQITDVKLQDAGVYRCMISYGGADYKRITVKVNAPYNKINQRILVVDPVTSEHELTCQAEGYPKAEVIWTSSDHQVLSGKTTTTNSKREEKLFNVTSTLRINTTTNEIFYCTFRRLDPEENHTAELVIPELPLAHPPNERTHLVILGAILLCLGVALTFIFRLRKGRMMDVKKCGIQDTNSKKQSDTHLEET

Cc1c(Nc2cccc3cc(CNCCO)cnc23)cccc1-c1ccccc1
IC50 [1]: < 10 nM

NC(=O)C[C@H](N)c1nc([C@@H](N)CO)no1
Activity (Splenocyte): 48.4%

CCN(CC)CCCC(C)Nc1ccnc2cc(Cl)ccc12 (configuration not stated) [CHLOROQUINE]
EC50 [2]: 6500 nM | IC50 (MIA PaCa-2): 3500 nM

Cn1cc(C[C@@H](N)C(=O)O)c2ccccc21 [INDOXIMOD]
half-life [3]: 10.5 h

COc1cc(/C=N/c2nc(-c3cc4ccccc4oc3=O)cs2)cc(OC)c1OC
IC50 [4]: 50 nM

CCCN(CCC)C(=O)C1=Cc2ccc(-c3ccc(C(=O)N4CCCC4)cc3)cc2N=C(N)C1 [MOTOLIMOD]
EC50 (Toll-like receptor 8): 100 nM

N=C(NO)NCC[C@H](N)C(=O)O [NOR-NOHA]
half-life [5]: 0.25 h | bioavailability [6]: 100%

C[C@@]12CCCCC1=C(O)C(=O)c1cc3c(cc12)C(=O)C1=C(C3=O)S(=O)(=O)CCN1
IC50 [7]: 110 nM

CN[C@@H](CO)C(=O)N1C[C@H](CCCB(O)O)[C@](N)(C(=O)O)C1
IC50 (Arginase-1): 740 nM

N[C@@H](CSCCB(O)O)C(=O)O
Ki [8]: 310 nM
